How the values were obtained:
Format in all cases: in vivo
[1] = system: Abutilon theophrasti (ABUTH); assay: Post-emergence herbicidal action, greenhouse pot test; details: rated visually after about 3 weeks vs untreated controls, 100% = plants have died
Outline: (§1)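 Greenhouse-grown weeds in sandy loam were sprayed post-emergence at the one-leaf stage, 2–3 weeks after sowing. Compounds were formulated as WP or EC in water with 0.5% additive at 600 l/ha, at rates of 20 g/ha or less. Visual rating after about 3 weeks used a scale from 0% (like untreated control) to 100% (plants dead).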

[2] = system: Amaranthus retroflexus (AMARE); assay: as above; details: rated visually after about 3 weeks vs untreated controls, 100% = plants have died
Outline: as §1

[3] = system: Pharbitis purpurea (PHBPU); assay: as above
Outline: as §1

[4] = system: Polygonum convolvulus (POLCO); assay: as above
Outline: as §1

Stellaria media (STEME) = assay: as above
Outline: as §1

Veronica persica (VERPE) = assay: as above
Outline: as §1

Viola tricolor (VIOTR) = assay: as above
Outline: as §1

[5] = system: Alopecurus myosuroides (ALOMY); assay: Post-emergence herbicidal action, greenhouse pot test (also comparative test C); details: rated visually after about 3 weeks vs untreated controls, 100% = plants have died
Outline: (§2)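 Visual rating against untreated controls, about 3 weeks after spraying, from 0% (like control) to 100% (plants dead). Weeds were treated at the one-leaf stage, 2–3 weeks after sowing in sandy loam, with aqueous WP/EC spray containing 0.5% additive at 600 l/ha. Doses were ≤20 g/ha, or ≤5 g/ha for comparative test C.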

[6] = system: Echinochloa crus-galli (ECHCG); assay: as above
Outline: as §2

[7] = system: Matricaria inodora (MATIN); assay: as above
Outline: as §2

Setaria viridis (SETVI) = assay: as above
Outline: as §2

Brassica napus (BRSNW) = assay: Post-emergence crop plant compatibility, greenhouse pot test; details: for Post-emergence action against BRSNW (crop plant compatibility): vs untreated controls; for Post-emergence action at 5 g/ha against BRSNW in %: crop plant compatibility, observed effects on crop plant in comparison to untreated controls
Outline: (§3)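 Percent crop injury was judged by eye roughly three weeks after treatment, relative to untreated plants, where 100% meant death. Application was a post-emergence spray at the one-leaf stage, 600 l/ha water volume with 0.5% additive; letters a, b, c denote differing dose rates.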

Glycine max (GLXMA) = assay: as above
Outline: as §3

[8] = system: Triticum aestivum (TRZAS); assay: as above; details: 1.25 g/ha, vs untreated controls
Outline: as §3

Oryza sativa (ORYSA) = assay: Post-emergence crop plant compatibility, greenhouse pot test (also comparative test C); details: for Post-emergence action against ORYSA (crop plant compatibility): vs untreated controls
Outline: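 Rice and other crops sprayed post-emergence at one-leaf stage (2–3 weeks after sowing) with WP or EC formulations plus 0.5% additive at 600 l/ha water. Visual rating about 3 weeks later versus untreated controls (100% = dead, 0% = like control); suffixes a–c denote different doses.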

Zea mays (ZEAMX) = assay: Post-emergence crop plant compatibility, greenhouse pot test; details: 1.25 g/ha, vs untreated controls
Outline: as §3

Avena fatua (AVEFA) = assay: Post-emergence herbicidal action, greenhouse pot test; details: rated visually after about 3 weeks vs untreated controls, 100% = plants have died
Outline: as §1

Lolium rigidum (LOLRI) = assay: as above; details: Lolium rigidum, 504 h, dosage 20 g/ha, read-out: Post-emergence action against LOLRI in %
Outline: as §1

COCCOCCOC(=O)C(C)Oc1ccccc1Sc1cc(-n2c(=O)cc(C(F)(F)F)n(C)c2=O)c(F)cc1Cl (racemic) [I.2-23]
Post-emergence action at 1.25 g/ha against ABUTH in % [1]: 100%
Post-emergence action at 5 g/ha against ABUTH in % ([1]; 5 g/ha): 100%
Post-emergence action at 20 g/ha against ABUTH in % ([1]; 20 g/ha): 100%
Post-emergence action at 1.25 g/ha against AMARE in % [2]: 80%
Post-emergence action at 5 g/ha against AMARE in % ([2]; 5 g/ha): 100%
Post-emergence action at 20 g/ha against AMARE in % ([2]; 20 g/ha): 100%
Post-emergence action against PHBPU in % ([3]; dosage 1.25 g/ha): 100%
Post-emergence action against PHBPU in % ([3]; dosage 5 g/ha): 100%
Post-emergence action against PHBPU in % ([3]; dosage 20 g/ha): 100%
Post-emergence action against POLCO in % ([4]; dosage 5 g/ha): 100%
Post-emergence action against POLCO in % ([4]; dosage 20 g/ha): 100%
Post-emergence action against STEME (Stellaria media (STEME); 5 g/ha): 100%
Post-emergence action against STEME (Stellaria media (STEME); 20 g/ha): 100%
Post-emergence action against VERPE (Veronica persica (VERPE); 1.25 g/ha): 80%
Post-emergence action against VERPE (Veronica persica (VERPE); 5 g/ha): 100%
Post-emergence action against VERPE (Veronica persica (VERPE); 20 g/ha): 100%
Post-emergence action against VIOTR (Viola tricolor (VIOTR); 5 g/ha): 100%
Post-emergence action against VIOTR (Viola tricolor (VIOTR); 20 g/ha): 100%
Post-emergence action at 20 g/ha against ALOMY in % ([5]; 20 g/ha): 80%
Post-emergence action against ECHCG in % ([6]; dosage 5 g/ha): 100%
Post-emergence action against ECHCG in % ([6]; dosage 20 g/ha): 100%
Post-emergence action against MATIN in % ([7]; dosage 5 g/ha): 80%
Post-emergence action against MATIN in % ([7]; dosage 20 g/ha): 100%
Post-emergence action against SETVI (Setaria viridis (SETVI); 20 g/ha): 100%
Post-emergence action against SETVI in % (Setaria viridis (SETVI); dosage 5 g/ha): 100%
Post-emergence action against BRSNW (crop plant compatibility) (Brassica napus (BRSNW); 1.25 g/ha): 20%
Post-emergence action at 5 g/ha against BRSNW in % (Brassica napus (BRSNW)): 20%
Post-emergence action against GLXMA in % (Glycine max (GLXMA); 1.25 g/ha): 0%
Post-emergence action against GLXMA in % (Glycine max (GLXMA); 5 g/ha): 10%
Post-emergence action against GLXMA in % (Glycine max (GLXMA); 20 g/ha): 20%
Post-emergence action against TRZAS (crop plant compatibility) [8]: 20%
Post-emergence action against ORYSA (crop plant compatibility) (Oryza sativa (ORYSA); 1.25 g/ha): 10%
Post-emergence action against ORYSA (crop plant compatibility) (Oryza sativa (ORYSA); 5 g/ha): 10%

CC(Oc1ccccc1Sc1cc(-n2c(=O)cc(C(F)(F)F)n(C)c2=O)c(F)cc1Cl)C(=O)OCCO (racemic) [I.2-58]
Post-emergence action at 1.25 g/ha against ABUTH in % [1]: 100%
Post-emergence action at 5 g/ha against ABUTH in % ([1]; 5 g/ha): 100%
Post-emergence action at 20 g/ha against ABUTH in % ([1]; 20 g/ha): 100%
Post-emergence action at 1.25 g/ha against AMARE in % [2]: 90%
Post-emergence action at 5 g/ha against AMARE in % ([2]; 5 g/ha): 100%
Post-emergence action at 20 g/ha against AMARE in % ([2]; 20 g/ha): 100%
Post-emergence action against PHBPU in % ([3]; dosage 5 g/ha): 80%
Post-emergence action against PHBPU in % ([3]; dosage 20 g/ha): 100%
Post-emergence action against POLCO in % ([4]; dosage 1.25 g/ha): 100%
Post-emergence action against POLCO in % ([4]; dosage 5 g/ha): 100%
Post-emergence action against POLCO in % ([4]; dosage 20 g/ha): 100%
Post-emergence action against STEME (Stellaria media (STEME); 5 g/ha): 100%
Post-emergence action against STEME (Stellaria media (STEME); 20 g/ha): 100%
Post-emergence action against VERPE (Veronica persica (VERPE); 5 g/ha): 80%
Post-emergence action against VERPE (Veronica persica (VERPE); 20 g/ha): 100%
Post-emergence action against VIOTR (Viola tricolor (VIOTR); 1.25 g/ha): 100%
Post-emergence action against VIOTR (Viola tricolor (VIOTR); 5 g/ha): 100%
Post-emergence action against VIOTR (Viola tricolor (VIOTR); 20 g/ha): 100%
Post-emergence action at 20 g/ha against ALOMY in % ([5]; 20 g/ha): 80%
Post-emergence action against MATIN in % ([7]; dosage 5 g/ha): 80%
Post-emergence action against MATIN in % ([7]; dosage 20 g/ha): 90%
Post-emergence action against SETVI (Setaria viridis (SETVI); 20 g/ha): 100%
Post-emergence action against SETVI in % (Setaria viridis (SETVI); dosage 1.25 g/ha): 100%
Post-emergence action against SETVI in % (Setaria viridis (SETVI); dosage 5 g/ha): 100%
Post-emergence action against BRSNW (crop plant compatibility) (Brassica napus (BRSNW); 1.25 g/ha): 20%
Post-emergence action against GLXMA in % (Glycine max (GLXMA); 1.25 g/ha): 10%
Post-emergence action against GLXMA in % (Glycine max (GLXMA); 5 g/ha): 10%
Post-emergence action against ZEAMX (crop plant compatibility) (Zea mays (ZEAMX)): 10%
Post-emergence action against ORYSA (crop plant compatibility) (Oryza sativa (ORYSA); 1.25 g/ha): 10%
Post-emergence action against ORYSA (crop plant compatibility) (Oryza sativa (ORYSA); 5 g/ha): 10%
Post-emergence action against ORYSA in % (Oryza sativa (ORYSA); 20 g/ha, crop plant compatibility): 20%

Cn1c(C(F)(F)F)cc(=O)n(-c2cc(Oc3ccccc3OCC(=O)OCC#N)c(Cl)cc2F)c1=O [I.7-176, Cyanomethyl (2-{2-chloro-4-fluoro-5-[3-methyl-2,6-dioxo-4-(trifluoromethyl)-3,6-dihydropyrimidin-1(2H)-yl]phenoxy}phenoxy)acetate]
pest or weed control at 5 g/ha ([1]; Abutilon theophrasti, 504 h, 5 g/ha, read-out: Post-emergence action at 5 g/ha against ABUTH in %): 100%
pest or weed control at 20 g/ha ([1]; Abutilon theophrasti, 504 h, 20 g/ha, read-out: Post-emergence action at 20 g/ha against ABUTH in %): 100%
pest or weed control at 5 g/ha ([2]; Amaranthus retroflexus, 504 h, 5 g/ha, read-out: Post-emergence action at 5 g/ha against AMARE in %): 100%
pest or weed control at 20 g/ha ([2]; Amaranthus retroflexus, 504 h, 20 g/ha, read-out: Post-emergence action at 20 g/ha against AMARE in %): 100%
Post-emergence action at 5 g/ha against AVEFA in % (Avena fatua (AVEFA); 5 g/ha): 80%
pest or weed control at 20 g/ha (Avena fatua (AVEFA); Avena fatua, 504 h, 20 g/ha, read-out: Post-emergence action at 20 g/ha against AVEFA in %): 100%
pest or weed control at 20 g/ha (Lolium rigidum (LOLRI)): 80%
pest or weed control at 5 g/ha ([3]; Ipomoea purpurea, 504 h, dosage 5 g/ha, read-out: Post-emergence action against PHBPU in %): 100%
pest or weed control at 20 g/ha ([3]; Ipomoea purpurea, 504 h, dosage 20 g/ha, read-out: Post-emergence action against PHBPU in %): 100%
pest or weed control at 5 g/ha ([4]; Fallopia convolvulus, 504 h, dosage 5 g/ha, read-out: Post-emergence action against POLCO in %): 100%
pest or weed control at 20 g/ha ([4]; Fallopia convolvulus, 504 h, dosage 20 g/ha, read-out: Post-emergence action against POLCO in %): 100%
pest or weed control at 5 g/ha (Veronica persica (VERPE); Veronica persica, 504 h, 5 g/ha, read-out: Post-emergence action against VERPE): 100%
pest or weed control at 20 g/ha (Veronica persica (VERPE); Veronica persica, 504 h, 20 g/ha, read-out: Post-emergence action against VERPE): 100%
pest or weed control at 5 g/ha (Viola tricolor (VIOTR); Viola tricolor, 504 h, 5 g/ha, read-out: Post-emergence action against VIOTR): 100%
pest or weed control at 20 g/ha (Viola tricolor (VIOTR); Viola tricolor, 504 h, 20 g/ha, read-out: Post-emergence action against VIOTR): 100%
pest or weed control at 5 g/ha ([5]; Alopecurus myosuroides, 504 h, 5 g/ha, read-out: Post-emergence action at 5 g/ha against ALOMY in %): 100%
pest or weed control at 20 g/ha ([5]; Alopecurus myosuroides, 504 h, 20 g/ha, read-out: Post-emergence action at 20 g/ha against ALOMY in %): 100%
pest or weed control at 5 g/ha ([6]; Echinochloa crus-galli, 504 h, dosage 5 g/ha, read-out: Post-emergence action against ECHCG in %): 100%
pest or weed control at 20 g/ha ([6]; Echinochloa crus-galli, 504 h, dosage 20 g/ha, read-out: Post-emergence action against ECHCG in %): 100%
pest or weed control at 5 g/ha ([7]; Tripleurospermum inodorum, 504 h, dosage 5 g/ha, read-out: Post-emergence action against MATIN in %): 90%
pest or weed control at 20 g/ha ([7]; Tripleurospermum inodorum, 504 h, dosage 20 g/ha, read-out: Post-emergence action against MATIN in %): 100%
pest or weed control at 20 g/ha (Setaria viridis (SETVI); Setaria viridis, 504 h, 20 g/ha, read-out: Post-emergence action against SETVI): 100%
pest or weed control at 5 g/ha (Setaria viridis (SETVI); Setaria viridis, 504 h, dosage 5 g/ha, read-out: Post-emergence action against SETVI in %): 100%
Post-emergence action at 5 g/ha against BRSNW in % (Brassica napus (BRSNW)): 20%
Post-emergence action against BRSNW (crop plant compatibility) (Brassica napus (BRSNW); 20 g/ha): 20%

Reference: patent US20240025862A1, “SUBSTITUTED N-PHENYLURACILS AND SALTS THEREOF, AND USE THEREOF AS HERBICIDAL ACTIVE SUBSTANCES” (Bayer Aktiengesellschaft, priority 2020, published 2024)
